From ChEMBL document CHEMBL1201862, “PubChem BioAssay data set” (2004)
Active and inactive are the calls of the source.

What was measured:
[1] = biological target: Glutathione-S-transferase (Schistosoma japonicum, UniProt Q26513); test: biotin-GST/anti-GST TR-FRET signal inhibitors, dose response, artefact control for Vif-APOBEC3G degradation inhibitor project, biochemical (AID 1117362); type: functional
Estrogen receptor beta = Estrogen receptor beta (Homo sapiens, UniProt Q92731);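 note: recombinant ER-beta bound to coactivator SRC1 peptide in presence of estradiol agonist; inhibitors block coactivator peptide binding and lower the FRET signal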
Chain of Estrogen receptor beta (Q92731 whole entry): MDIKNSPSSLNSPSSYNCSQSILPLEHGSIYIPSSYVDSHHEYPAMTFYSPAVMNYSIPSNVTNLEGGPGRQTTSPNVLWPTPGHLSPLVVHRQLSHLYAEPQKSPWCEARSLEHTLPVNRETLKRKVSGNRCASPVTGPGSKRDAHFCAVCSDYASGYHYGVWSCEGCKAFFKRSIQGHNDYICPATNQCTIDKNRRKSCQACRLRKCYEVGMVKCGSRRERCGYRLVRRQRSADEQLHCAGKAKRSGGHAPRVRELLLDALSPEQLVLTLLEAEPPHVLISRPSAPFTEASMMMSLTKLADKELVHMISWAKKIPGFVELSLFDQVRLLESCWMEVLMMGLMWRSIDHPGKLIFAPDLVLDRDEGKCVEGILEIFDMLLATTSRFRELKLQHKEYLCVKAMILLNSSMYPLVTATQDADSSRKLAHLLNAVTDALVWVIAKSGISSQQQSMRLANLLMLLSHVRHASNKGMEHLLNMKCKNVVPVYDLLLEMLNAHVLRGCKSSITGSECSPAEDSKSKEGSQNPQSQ

[2] = biological target: Glucose-6-phosphate 1-dehydrogenase (Homo sapiens, UniProt P11413); test: human G6PD enzyme inhibitors, dose response, selectivity assay for P. falciparum G6PD inhibitor project, biochemical, fluorescence (AID 504792); type: functional
Chain of Glucose-6-phosphate 1-dehydrogenase (P11413 whole entry): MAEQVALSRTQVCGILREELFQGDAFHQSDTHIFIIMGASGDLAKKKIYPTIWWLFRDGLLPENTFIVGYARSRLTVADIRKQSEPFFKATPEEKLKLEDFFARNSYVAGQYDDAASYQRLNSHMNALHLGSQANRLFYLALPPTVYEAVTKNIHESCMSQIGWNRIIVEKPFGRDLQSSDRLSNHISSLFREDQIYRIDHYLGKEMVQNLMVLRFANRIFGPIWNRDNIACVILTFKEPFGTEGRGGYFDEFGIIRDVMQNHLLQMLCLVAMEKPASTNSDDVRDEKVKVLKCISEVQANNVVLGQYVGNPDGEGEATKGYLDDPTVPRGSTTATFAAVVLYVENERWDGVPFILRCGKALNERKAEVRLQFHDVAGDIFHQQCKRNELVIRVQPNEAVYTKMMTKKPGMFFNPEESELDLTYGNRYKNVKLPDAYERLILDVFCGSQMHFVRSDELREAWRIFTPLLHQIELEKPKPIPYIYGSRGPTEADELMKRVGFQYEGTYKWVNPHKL

[3] = THP-1 cell cytotoxicity, dose response, cytotoxicity control for Vif-APOBEC3G degradation inhibitor project, THP-1 cells (AID 1117359); type: functional; settings: Human immunodeficiency virus 1, THP-1
[4] = inhibitors of HIV Env-driven cell fusion, dose response, cherry-pick (AID 652057); type: functional, cell-based
[5] = CEM21 lymphoblast cell cytotoxicity, dose response, cytotoxicity control for viral fusion inhibitor project, CellTiter-Glo luminescence, cherry-picked (AID 652042); type: functional, cell-based;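 note: potency for signal decrease meaning cytotoxicity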
[6] = ZM109 Env clade C HIV-1 fusion inhibitors, dose response, HeLa effector, CEM target cells, luciferase, cherry-pick (AID 652058); type: functional, cell-based
[7] = off-target signal loss in HeLa-CEM21 co-culture – HeLa F-luc CTL cells, cherry-picked, counter-screen for HIV-1 Env fusion inhibitor project, dose response (AID 652040); type: functional, cell-based;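 note: potency for signal decrease marking cytotoxic or nonspecific inhibition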
[8] = inhibitors of clade B AD8 Env fusion, dose response, cell-based, cherry-pick (AID 652062); type: functional;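 note: luciferase signal from cell-cell fusion driven by HIV-1 clade B AD8 Env; potency is for inhibitors of fusion seen as a drop in luminescence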
[9] = Luminescence-based cell-based high throughput dose response assay to identify activators of the DAF-12 from the parasite S. stercoralis (ssDAF-12).; type: functional
[10] = biological target: T1, Oxysterols receptor LXR-beta (Homo sapiens, UniProt P55055); test: LXR agonists, Gal4 luciferase reporter, dose response, counter-screen for ssDAF-12 agonist project, cell-based, luminescence, HEK293, S. stercoralis campaign (AID 720737); type: functional; settings: read-out: IC50 (the source's name)
T1 sequence (P55055 whole entry): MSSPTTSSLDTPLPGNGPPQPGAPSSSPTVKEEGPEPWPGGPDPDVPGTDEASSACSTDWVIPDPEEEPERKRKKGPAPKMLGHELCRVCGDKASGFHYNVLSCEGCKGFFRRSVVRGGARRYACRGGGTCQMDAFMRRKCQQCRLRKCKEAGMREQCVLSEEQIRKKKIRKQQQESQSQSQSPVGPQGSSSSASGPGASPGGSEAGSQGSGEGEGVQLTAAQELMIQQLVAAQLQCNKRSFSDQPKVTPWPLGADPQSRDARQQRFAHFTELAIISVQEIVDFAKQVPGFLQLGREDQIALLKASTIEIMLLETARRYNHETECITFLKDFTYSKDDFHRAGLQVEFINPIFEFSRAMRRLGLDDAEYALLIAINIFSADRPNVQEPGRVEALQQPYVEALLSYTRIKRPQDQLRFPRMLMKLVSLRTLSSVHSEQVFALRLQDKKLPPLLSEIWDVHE

Paired box protein Pax-8 = Paired box protein Pax-8 (Homo sapiens, UniProt Q06710); test: inhibitors of PAX8-driven TPO luciferase reporter, dose response, RMG-I cells, cherry-pick (AID 687027); type: functional, cell-based;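 note: luciferase reporter driven by Pax8 target thyroperoxidase promoter measured by SteadyGlo luminescence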
Chain of Paired box protein Pax-8 (Q06710 whole entry): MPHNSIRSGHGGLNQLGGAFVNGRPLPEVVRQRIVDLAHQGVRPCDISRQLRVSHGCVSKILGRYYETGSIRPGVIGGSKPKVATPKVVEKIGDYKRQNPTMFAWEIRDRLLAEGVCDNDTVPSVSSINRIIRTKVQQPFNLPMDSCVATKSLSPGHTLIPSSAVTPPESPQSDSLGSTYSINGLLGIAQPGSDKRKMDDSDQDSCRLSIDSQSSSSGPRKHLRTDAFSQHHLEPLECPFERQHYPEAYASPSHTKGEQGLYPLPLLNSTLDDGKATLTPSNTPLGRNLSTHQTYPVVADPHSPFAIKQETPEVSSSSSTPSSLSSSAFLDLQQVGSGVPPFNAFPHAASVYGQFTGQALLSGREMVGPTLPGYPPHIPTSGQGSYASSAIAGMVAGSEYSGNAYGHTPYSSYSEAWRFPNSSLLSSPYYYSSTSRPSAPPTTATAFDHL

[11] = PAX2 cell-based inhibition, dose response, selectivity assay for PAX8 inhibitor project, plate reader, dry powder samples (AID 743048); type: functional;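 note: HEK293 cells carrying a WT1 promoter luciferase reporter driven by expressed Pax2; potency is for inhibition of Pax2 driven reporter signal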
[12] = cytotoxicity in COV362 ovarian cancer cells, dose response, cytotoxicity control for PAX8 inhibitor project, cell-based, plate reader, dry powder, SA12 (AID 743144); type: functional
[13] = PAX5 activity inhibitors, dose response, selectivity assay for PAX8 inhibitor project, cell-based, plate reader, dry powder samples (AID 743047); type: functional;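 note: HEK293 cells carrying a Pax5 driven CD19 promoter luciferase reporter; potency of inhibitors that lower reporter luminescence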
[14] = cytotoxicity in OVCAR8 ovarian cancer cells, dose response, PAX8 project, cell-based, plate reader, dry powder samples (AID 743197); type: functional; settings: OVCAR-8
[15] = cytotoxicity dependent on PAX8, dose response, cell-based, plate reader, dry powder (AID 743049); type: functional
[16] = P. falciparum 3D7-ScDHODH growth inhibitors, dose response, SYBR Green, dry powder samples (AID 1159570); type: functional, cell-based;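 note: parasite growth measured after 72 hours of compound exposure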
[17] = HepG2 cell cytotoxicity, dose response, cytotoxicity control, plate reader, dry powder samples (AID 1159569); type: functional, cell-based;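 note: inhibitor potency with signal falling toward the positive control level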
[18] = P. falciparum Dd2 growth inhibitors, dose response, SYBR Green, cherry-picked samples (AID 1159567); type: functional, cell-based
[19] = P. falciparum Dd2 growth inhibitors, dose response, SYBR Green, dry powder samples (AID 1159566); type: functional, cell-based;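 note: potency for growth inhibition with lower SYBR green DNA signal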
[20] = P. falciparum ATP4 D1247Y mutant growth inhibitors, dose response, NITD609-resistant line, SYBR Green, dry powder (AID 1159571); type: functional, cell-based;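 note: parasites synchronized at ring stage by sorbitol before testing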
[21] = IOSE-T80 ovarian epithelial cell cytotoxicity, dose response, cytotoxicity control for PAX8 inhibitor project, plate reader, dry powder samples (AID 743045); type: functional, cell-based
[22] = A2780 ovarian cancer cell cytotoxicity, dose response, cytotoxicity control, plate reader, dry powder samples (AID 743046); type: functional, cell-based
[23] = NIH:OVCAR-3 ovarian cancer cell cytotoxicity, dose response, PAX8 inhibitor project, plate reader, dry powder samples (AID 743044); type: functional, cell-based
[24] = IGROV1 ovarian cancer cell cytotoxicity, dose response, PAX8 inhibitor project, plate reader, dry powder samples (AID 743043); type: functional, cell-based; settings: IGROV-1
[25] = Late stage assay provider results from the probe development effort to identify selective inhibitors of heat shock protein 90 (HSP90): Absorbance-based cell proliferation assay in SKBR3 cells.; type: functional; settings: SK-BR-3
[26] = Late stage assay provider results from the probe development effort to identify selective inhibitors of heat shock protein 90 (HSP90): Absorbance-based cell proliferation assay in MCF7 cells.; type: functional
[27] = Luminescence Cell-Based Dose Response to Identify Activators of 5'UTR Stem-Loop Driven Prion Protein mRNA Translation in H4-C Neuroglioblastoma Cells. [Related pubchem assays: 1829 (Project Summary), 1814 (Primary HTS)]; type: functional
[28] = Luminescence Cell-Based Dose Response HTS to Identify Activators of Luciferase Translation or Activity in H4 […] Cells. [Related pubchem assays: 1829 (Project Summary), 1814 (Primary HTS)]; type: functional
[29] = Luminescence Cell-Based Dose Response to Identify Activators of Luciferase Translation or Activity in H4-C Neuroglioblastoma Cells. [Related pubchem assays: 1829 (Project Summary), 1814 (Primary HTS)]; type: functional
[30] = Luminescence Cell-Based Dose Confirmation to Identify Activators of 5'UTR Stem-Loop Driven Alpha-Synuclein mRNA Translation in H4 Neuroglioblastoma Cells. [Related pubchem assays: 1829 (Project Summary), 1814 (Primary HTS)]; type: functional
[31] = Concentration-dependent survival of SW480 colon cancer line, luminescence detection with CellTiter-Glo, half-maximal inhibitory concentration (AID 1117338); type: functional
[32] = RKO cell viability reduction, dose response, CellTiter-Glo luminescence (AID 1117322); type: functional
[33] = cytotoxicity toward HCT116 cells – cell-based, CellTiter-Glo luminescence, IC50, dose response (AID 1117332); type: functional; settings: HCT-116
[34] = SNU-C1 cell viability reduction, dose response, CellTiter-Glo luminescence (AID 1117323); type: functional, cell-based
[35] = cytotoxicity toward Colo320 cells – cell-based, CellTiter-Glo luminescence, IC50, dose response (AID 1117334); type: functional; settings: COLO 320
[36] = cytotoxicity toward HT-29 cells – cell-based, CellTiter-Glo luminescence, IC50, dose response (AID 1117330); type: functional
[37] = CellTiter-Glo luminescent dose response of DLD-1 viability loss (AID 1117352); type: functional
[38] = HCT116 cell viability decrease, GSK3B pretreatment – CellTiter-Glo, IC50, dose response (AID 1117339); type: functional; settings: HCT-116

Chain of Glutathione-S-transferase (Q26513 whole entry): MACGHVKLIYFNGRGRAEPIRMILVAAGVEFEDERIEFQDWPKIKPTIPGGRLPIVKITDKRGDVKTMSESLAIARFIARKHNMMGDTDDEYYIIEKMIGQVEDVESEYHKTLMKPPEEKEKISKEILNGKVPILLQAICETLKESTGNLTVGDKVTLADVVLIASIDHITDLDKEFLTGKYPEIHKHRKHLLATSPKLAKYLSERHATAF

Cn1nccc1NC(=O)Nc1ccc(Cl)cc1
IC50 [1]: 93.4 µM (active)

COc1ccc(N2CC(C(=O)O)CC2=O)cc1 (configuration not stated)
IC50 (Estrogen receptor beta): > 50 µM (not active)

COc1cccc(C=Nc2cc(C(C)C)c(O)cc2C)c1O
IC50 [2]: 33.9 µM (inactive) | CC50 [3]: 27.2 µM (active)

Fc1cccc(Cc2c(-c3ccco3)nc3c4ccccc4ccn23)c1
AC50 [4]: 1.12 µM (active) | AC50 [5]: 44 µM (active) | AC50 [6]: 1.2 µM (active) | AC50 [7]: 0.907 µM (active) | AC50 [8]: 5.56 µM (active) | IC50 [9]: > 67.5 µM (inactive) | EC50 [10]: > 67.5 µM (inactive)

COc1cccc(C#Cc2ccc([C@@H]3[C@@H](C#N)N(C(=O)C4CCCCC4)[C@H]3CO)cc2)c1
AC50 (Paired box protein Pax-8): 8.61 µM (active) | AC50 [11]: 46.5 µM (active) | AC50 [12]: > 70 µM (inactive) | AC50 [13]: 5.72 µM (active) | AC50 [14]: > 70 µM (inactive) | AC50 [15]: 15.9 µM (active) | AC50 [16]: 1.11 µM (active) | AC50 [17]: 26.5 µM (active) | AC50 [18]: 0.865 µM (active) | AC50 [19]: 0.422 µM (active) | AC50 [20]: 1.13 µM (active)

COc1ccc(-c2ccc3c(c2)[C@H]2[C@H](CCN2S(=O)(=O)c2ccc(OC)cc2)[C@H](CO)N3C)cc1
AC50 (Paired box protein Pax-8): 7.21 µM (active) | AC50 [21]: 6.56 µM (active) | AC50 [22]: 1.52 µM (active) | AC50 [23]: 3.15 µM (active) | AC50 [24]: 5.8 µM (active) | AC50 [14]: 7.31 µM (active)

CCCCCCCCOc1ccc(NC(=O)c2coc(=O)c(Br)c2)cc1
IC50 [25]: 13.5 µM (inactive) | IC50 [26]: 12.9 µM (inactive)

O=C(NCc1cccnc1)c1coc(=O)c(Br)c1
IC50 [25]: 12.8 µM (inactive) | IC50 [26]: 3.5 µM (active)

CSc1nsc(N/N=C/c2ccc3c(c2)OCO3)c1C#N
EC50 [27]: 0.314 µM (active) | EC50 [28]: < 0.1 µM (inconclusive) | EC50 [29]: 0.303 µM (active) | EC50 [30]: 0.415 µM (active)

O=C(NC(=O)c1c(F)cccc1F)Nc1ccc(Cl)c(Oc2ncc(C(F)(F)F)cc2Cl)c1 [FLUAZURON]
IC50 [31]: > 20 µM (inactive) | IC50 [32]: 11.8 µM (inactive) | IC50 [33]: > 20 µM (inactive) | IC50 [34]: > 20 µM (inactive) | IC50 [35]: > 20 µM (inactive) | IC50 [36]: > 20 µM (inactive) | IC50 [37]: > 20 µM (inactive) | IC50 [38]: 10.6 µM (inactive)

CC(=O)N(CC(O)CN(C(C)=O)c1c(I)c(C(=O)NCC(O)CO)c(I)c(C(=O)NCC(O)CO)c1I)c1c(I)c(C(=O)NCC(O)CO)c(I)c(C(=O)NCC(O)CO)c1I (configuration not stated) [IODIXANOL]
IC50 [31]: > 20 µM (inactive) | IC50 [32]: > 20 µM (inactive) | IC50 [33]: > 20 µM (inactive) | IC50 [34]: > 20 µM (inactive) | IC50 [35]: > 20 µM (inactive) | IC50 [36]: > 20 µM (inactive) | IC50 [37]: > 20 µM (inactive) | IC50 [38]: > 20 µM (inactive)
